Experiment: xn = mol fraction of the nth substance listed
Settings: 100 kPa, Liquid; for viscosity: Concentric cylinders viscometry; for mass density: Vibrating tube method

CCOS(=O)(=O)[O-].CCn1cc[n+](C)c1 [1-ethyl-3-methylimidazolium ethyl sulfate] + CCCCCCO
Settings	mass density [kg/m3]	viscosity [mPa·s]
288.15 K, x1 = 0.1016	883.62	9.353
288.15 K, x1 = 0.2016	938.59	13.3
288.15 K, x1 = 0.3005	988.2	18.78
288.15 K, x1 = 0.3989	1033.38	26.42
288.15 K, x1 = 0.4975	1075.01	36.71
288.15 K, x1 = 0.5956	1113.22	50.2
288.15 K, x1 = 0.6647	1138.48	61.57
288.15 K, x1 = 0.7947	1182.52	90.12
288.15 K, x1 = 0.897	1214.13	117.32
288.15 K, x1 = 1	1243.07	155.55
293.15 K, x1 = 0.1016	880.04	7.885
293.15 K, x1 = 0.2016	935.01	11.15
293.15 K, x1 = 0.3005	984.62	15.65
293.15 K, x1 = 0.3989	1029.83	21.79
293.15 K, x1 = 0.4975	1071.48	29.93
293.15 K, x1 = 0.5956	1109.72	40.24
293.15 K, x1 = 0.6647	1135	48.86
293.15 K, x1 = 0.7947	1179.07	69.76
293.15 K, x1 = 0.897	1210.7	90.21
293.15 K, x1 = 1	1239.66	117.88
298.15 K, x1 = 0.1016	876.47	6.825
298.15 K, x1 = 0.2016	931.44	9.64
298.15 K, x1 = 0.3005	981.06	13.44
298.15 K, x1 = 0.3989	1026.28	18.54
298.15 K, x1 = 0.4975	1067.96	25.04
298.15 K, x1 = 0.5956	1106.23	33.31
298.15 K, x1 = 0.6647	1131.53	40.06
298.15 K, x1 = 0.7947	1175.63	55.99
298.15 K, x1 = 0.897	1207.28	71.04
298.15 K, x1 = 1	1236.27	91.26
303.15 K, x1 = 0.1016	872.88	5.918
303.15 K, x1 = 0.2016	927.87	8.313
303.15 K, x1 = 0.3005	977.51	11.56
303.15 K, x1 = 0.3989	1022.76	15.8
303.15 K, x1 = 0.4975	1064.47	21.17
303.15 K, x1 = 0.5956	1102.76	27.85
303.15 K, x1 = 0.6647	1128.08	33.14
303.15 K, x1 = 0.7947	1172.21	45.6
303.15 K, x1 = 0.897	1203.87	57.05
303.15 K, x1 = 1	1232.87	72.1
308.15 K, x1 = 0.1016	869.3	5.153
308.15 K, x1 = 0.2016	924.31	7.242
308.15 K, x1 = 0.3005	973.98	10.01
308.15 K, x1 = 0.3989	1019.25	13.6
308.15 K, x1 = 0.4975	1060.99	18.02
308.15 K, x1 = 0.5956	1099.3	23.46
308.15 K, x1 = 0.6647	1124.65	27.77
308.15 K, x1 = 0.7947	1168.81	37.67
308.15 K, x1 = 0.897	1200.48	46.51
308.15 K, x1 = 1	1229.49	57.98
313.15 K, x1 = 0.1016	865.72	4.475
313.15 K, x1 = 0.2016	920.76	6.296
313.15 K, x1 = 0.3005	970.44	8.67
313.15 K, x1 = 0.3989	1015.75	11.7
313.15 K, x1 = 0.4975	1057.52	15.4
313.15 K, x1 = 0.5956	1095.87	19.84
313.15 K, x1 = 0.6647	1121.24	23.34
313.15 K, x1 = 0.7947	1165.42	31.23
313.15 K, x1 = 0.897	1197.11	38.33
313.15 K, x1 = 1	1226.13	47.26
318.15 K, x1 = 0.1016	862.11	3.975
318.15 K, x1 = 0.2016	917.2	5.593
318.15 K, x1 = 0.3005	966.93	7.683
318.15 K, x1 = 0.3989	1012.26	10.3
318.15 K, x1 = 0.4975	1054.07	13.44
318.15 K, x1 = 0.5956	1092.45	17.17
318.15 K, x1 = 0.6647	1117.84	20.06
318.15 K, x1 = 0.7947	1162.05	26.51
318.15 K, x1 = 0.897	1193.76	32.18
318.15 K, x1 = 1	1222.79	39.25
323.15 K, x1 = 0.1016	858.5	3.566
323.15 K, x1 = 0.2016	913.65	4.959
323.15 K, x1 = 0.3005	963.42	6.841
323.15 K, x1 = 0.3989	1008.79	9.127
323.15 K, x1 = 0.4975	1050.64	11.85
323.15 K, x1 = 0.5956	1089.05	14.98
323.15 K, x1 = 0.6647	1114.46	17.41
323.15 K, x1 = 0.7947	1158.7	22.64
323.15 K, x1 = 0.897	1190.42	27.41
323.15 K, x1 = 1	1219.46	32.94
